Measured values from patent US8846653B2, “Delta-tocotrienol treatment and prevention of pancreatic cancer” (University of South Florida, priority 2006, dated 2014).

Assays:
Assay type in all cases: cell-based, human
[1] = test system: SW1990 pancreatic cancer cells; test: MTS assay of SW1990 cultures, single 50 μM dose; details: SW1990, 50 μM
Protocol: SW1990 pancreatic cancer cells […] were cultured in complete DMEM media containing 10% fetal bovine serum (FBS) and 1% penicillin-streptomycin, and 1% L-glutamine. BxPc-3 pancreatic cancer cells were cultured in complete RPMI media containing 10% fetal bovine serum (FBS), and 1% penicillin-streptomycin, 1% HEPES buffer, 1% sodium pyruvate and 1% L-glutamine. HPDE6-C7 cells were cultured in serum-free keratinocyte SFM media. All cells were maintained at 37° C. in a humidified incubator with 5% CO2. The cells were treated with a single 50 μM dose of vehicle (ethanol extracted olive oil), T3 alpha (alpha tocotrienol), T3 beta (beta tocotrienol), T3 gamma (gamma tocotrienol), T3 delta (delta tocotrienol), T alpha (alpha tocopherol), T beta (beta tocopherol), TS (tocopherol succinate), GG (geranylgeraniol), SA (succinic acid). A control culture (i.e., only vehicle with no treatment) was grown alongside the treatments for comparison. Cell viability was measured using MTS assay at preselect times of 24, 48, or 72 hours after treatment.

BXPC3 cells = test: MTT assay of BXPC3 cultures, single 50 μM dose; design: MTT assay result, run 1 / MTT assay result, run 2 / MTT assay result, run 3 / MTT assay result, run 4 / MTT assay result, run 5 / MTT assay result, run 6 / MTT assay result, run 7 / MTT assay result, av (average) / MTT assay result, av-blank / MTT assay result, av: unit not given here; details: BXPC3, 50 μM; for MTT assay result, av-blank: average minus blank; for MTT assay result, av (average) / MTT assay result, av: average of 7 runs
Protocol: BXPC3 cells were cultured in complete […] media containing 10% fetal bovine serum (FBS) and 1% penicillin-streptomycin, and 1% L-glutamine. BxPc-3 pancreatic cancer cells were cultured in complete RPMI media containing 10% fetal bovine serum (FBS), and 1% penicillin-streptomycin, 1% HEPES buffer, 1% sodium pyruvate and 1% L-glutamine HPDE6-C7 cells were cultured in serum-free keratinocyte SFM media. All cells were maintained at 37° C. in a humidified incubator with 5% CO2. The cells were treated with a single 50 μM dose of vehicle (vehicle only, may be a solvent), T3 alpha (alpha tocotrienol), T3 beta (beta tocotrienol), T3 gamma (gamma tocotrienol), T3 delta (delta tocotrienol), T alpha (alpha tocopherol), T beta (beta tocopherol), TS (tocopherol succinate), GG (geranylgeraniol), SA (succinic acid). A control (no treatment) culture was grown alongside the treatments for comparison. Cell viability was measured using MTT assay at preselect times of 48 or 120 hours after treatment.

MiaPaCa-2 cells = test: MTT assay of MiaPaCa2 cultures, single 50 μM dose; design: rel amt (relative value set to the control): unit not given here; details: MiaPaCa2, 50 μM; for MTT assay result, av-blank: average minus blank; for MTT assay result, av: average of 7 runs
Protocol: MiaPaCa-2, BxPc-3, and HPDE6-C7 cells were cultured as described above, and treated with a single 50 μM dose of vehicle (ethanol extracted olive oil), T3 alpha (alpha tocotrienol), T3 beta (beta tocotrienol), T3 gamma (gamma tocotrienol), T3 delta (delta tocotrienol), T alpha (alpha tocopherol), T beta (beta tocopherol), TS (tocopherol succinate), GG (geranylgeraniol), SA (succinic acid). A control culture (vehicle only with no treatment) was grown alongside the treatments for comparison. Cell viability was measured using MTT assay at preselect times of 48 or 120 hours after treatment.

Compound: CC(C)=CCC/C(C)=C/CC/C(C)=C/CC[C@]1(C)CCc2c(C)c(O)cc(C)c2O1 [T3 beta, beta tocotrienol]
- rel amnt (relative value set to the control) ([1]; 24 hours): 99
- MTS assay result, run 1 ([1]; 24 hours): 0.164
- MTS assay result, run 2 ([1]; 24 hours): 0.168
- MTS assay result, run 3 ([1]; 24 hours): 0.167
- MTS assay result, run 4 ([1]; 24 hours): 0.123
- MTS assay result, run 5 ([1]; 24 hours): 0.138
- MTS assay result, run 6 ([1]; 24 hours): 0.143
- MTS assay result, run 7 ([1]; 24 hours): 0.126
- MTS assay result, run 8 ([1]; 24 hours): 0.134
- MTS assay result, run 9 ([1]; 24 hours): 0.145
- rel amnt (relative value set to the control) ([1]; 48 hours): 68
- MTS assay result, run 1 ([1]; 48 hours): 0.108
- MTS assay result, run 2 ([1]; 48 hours): 0.093
- MTS assay result, run 3 ([1]; 48 hours): 0.09
- MTS assay result, run 4 ([1]; 48 hours): 0.104
- MTS assay result, run 5 ([1]; 48 hours): 0.109
- MTS assay result, run 6 ([1]; 48 hours): 0.117
- MTS assay result, run 7 ([1]; 48 hours): 0.1
- MTS assay result, run 8 ([1]; 48 hours): 0.102
- MTS assay result, run 9 ([1]; 48 hours): 0.104
- rel amnt (relative value set to the control) ([1]; 72 hours): 69
- MTS assay result, run 1 ([1]; 72 hours): 0.349
- MTS assay result, run 2 ([1]; 72 hours): 0.316
- MTS assay result, run 3 ([1]; 72 hours): 0.33
- MTS assay result, run 4 ([1]; 72 hours): 0.298
- MTS assay result, run 5 ([1]; 72 hours): 0.323
- MTS assay result, run 6 ([1]; 72 hours): 0.287
- MTS assay result, run 7 ([1]; 72 hours): 0.28
- MTS assay result, run 8 ([1]; 72 hours): 0.275
- MTS assay result, run 9 ([1]; 72 hours): 0.307
- rel amt (relative value set to the control) (BXPC3 cells; 48 hours): 95
- MTT assay result, av-blank (BXPC3 cells; 48 hours): 0.216
- MTT assay result, av (average) (BXPC3 cells; 48 hours): 0.265
- MTT assay result, run 1 (BXPC3 cells; 48 hours): 0.263
- MTT assay result, run 2 (BXPC3 cells; 48 hours): 0.261
- MTT assay result, run 3 (BXPC3 cells; 48 hours): 0.27
- MTT assay result, run 4 (BXPC3 cells; 48 hours): 0.254
- MTT assay result, run 5 (BXPC3 cells; 48 hours): 0.278
- MTT assay result, run 6 (BXPC3 cells; 48 hours): 0.255
- MTT assay result, run 7 (BXPC3 cells; 48 hours): 0.274
- rel amt (relative value set to the control) (BXPC3 cells; 120 hours (5 days)): 72
- MTT assay result, av-blank (BXPC3 cells; 120 hours (5 days)): 0.417
- MTT assay result, av (BXPC3 cells; 120 hours (5 days)): 0.472
- MTT assay result, run 1 (BXPC3 cells; 120 hours (5 days)): 0.468
- MTT assay result, run 2 (BXPC3 cells; 120 hours (5 days)): 0.512
- MTT assay result, run 3 (BXPC3 cells; 120 hours (5 days)): 0.495
- MTT assay result, run 4 (BXPC3 cells; 120 hours (5 days)): 0.481
- MTT assay result, run 5 (BXPC3 cells; 120 hours (5 days)): 0.457
- MTT assay result, run 6 (BXPC3 cells; 120 hours (5 days)): 0.483
- MTT assay result, run 7 (BXPC3 cells; 120 hours (5 days)): 0.411
- rel amt (relative value set to the control) (MiaPaCa-2 cells; 48 hours): 62
- MTT assay result, av-blank (MiaPaCa-2 cells; 48 hours): 0.193
- MTT assay result, av (MiaPaCa-2 cells; 48 hours): 0.239
- MTT assay result, run 1 (MiaPaCa-2 cells; 48 hours): 0.272
- MTT assay result, run 2 (MiaPaCa-2 cells; 48 hours): 0.235
- MTT assay result, run 3 (MiaPaCa-2 cells; 48 hours): 0.233
- MTT assay result, run 4 (MiaPaCa-2 cells; 48 hours): 0.226
- MTT assay result, run 5 (MiaPaCa-2 cells; 48 hours): 0.252
- MTT assay result, run 6 (MiaPaCa-2 cells; 48 hours): 0.219
- MTT assay result, run 7 (MiaPaCa-2 cells; 48 hours): 0.239
- rel amt (relative value set to the control) (MiaPaCa-2 cells; 120 hours (5 days)): 53
- MTT assay result, av-blank (MiaPaCa-2 cells; 120 hours (5 days)): 0.966
- MTT assay result, av (MiaPaCa-2 cells; 120 hours (5 days)): 1.018
- MTT assay result, run 1 (MiaPaCa-2 cells; 120 hours (5 days)): 0.97
- MTT assay result, run 2 (MiaPaCa-2 cells; 120 hours (5 days)): 0.781
- MTT assay result, run 3 (MiaPaCa-2 cells; 120 hours (5 days)): 0.977
- MTT assay result, run 4 (MiaPaCa-2 cells; 120 hours (5 days)): 1.154
- MTT assay result, run 5 (MiaPaCa-2 cells; 120 hours (5 days)): 1.408
- MTT assay result, run 6 (MiaPaCa-2 cells; 120 hours (5 days)): 0.944
- MTT assay result, run 7 (MiaPaCa-2 cells; 120 hours (5 days)): 0.891

Compound: CC(C)=CCC/C(C)=C/CC/C(C)=C/CC[C@]1(C)CCc2cc(O)cc(C)c2O1 [T3 delta, delta tocotrienol]
- rel amnt (relative value set to the control) ([1]; 24 hours): 97
- MTS assay result, run 1 ([1]; 24 hours): 0.158
- MTS assay result, run 2 ([1]; 24 hours): 0.149
- MTS assay result, run 3 ([1]; 24 hours): 0.157
- MTS assay result, run 4 ([1]; 24 hours): 0.126
- MTS assay result, run 5 ([1]; 24 hours): 0.147
- MTS assay result, run 6 ([1]; 24 hours): 0.135
- MTS assay result, run 7 ([1]; 24 hours): 0.13
- MTS assay result, run 8 ([1]; 24 hours): 0.142
- MTS assay result, run 9 ([1]; 24 hours): 0.143
- rel amnt (relative value set to the control) ([1]; 48 hours): 83
- MTS assay result, run 1 ([1]; 48 hours): 0.131
- MTS assay result, run 2 ([1]; 48 hours): 0.133
- MTS assay result, run 3 ([1]; 48 hours): 0.12
- MTS assay result, run 4 ([1]; 48 hours): 0.12
- MTS assay result, run 5 ([1]; 48 hours): 0.126
- MTS assay result, run 6 ([1]; 48 hours): 0.119
- MTS assay result, run 7 ([1]; 48 hours): 0.12
- MTS assay result, run 8 ([1]; 48 hours): 0.142
- MTS assay result, run 9 ([1]; 48 hours): 0.127
- rel amnt (relative value set to the control) ([1]; 72 hours): 132
- MTS assay result, run 1 ([1]; 72 hours): 0.667
- MTS assay result, run 2 ([1]; 72 hours): 0.615
- MTS assay result, run 3 ([1]; 72 hours): 0.61
- MTS assay result, run 4 ([1]; 72 hours): 0.587
- MTS assay result, run 5 ([1]; 72 hours): 0.582
- MTS assay result, run 6 ([1]; 72 hours): 0.491
- MTS assay result, run 7 ([1]; 72 hours): 0.52
- MTS assay result, run 8 ([1]; 72 hours): 0.604
- MTS assay result, run 9 ([1]; 72 hours): 0.584
- rel amt (relative value set to the control) (BXPC3 cells; 48 hours): 95
- MTT assay result, av-blank (BXPC3 cells; 48 hours): 0.216
- MTT assay result, av (average) (BXPC3 cells; 48 hours): 0.265
- MTT assay result, run 1 (BXPC3 cells; 48 hours): 0.26
- MTT assay result, run 2 (BXPC3 cells; 48 hours): 0.255
- MTT assay result, run 3 (BXPC3 cells; 48 hours): 0.24
- MTT assay result, run 4 (BXPC3 cells; 48 hours): 0.263
- MTT assay result, run 5 (BXPC3 cells; 48 hours): 0.271
- MTT assay result, run 6 (BXPC3 cells; 48 hours): 0.277
- MTT assay result, run 7 (BXPC3 cells; 48 hours): 0.288
- rel amt (relative value set to the control) (BXPC3 cells; 120 hours (5 days)): 81
- MTT assay result, av-blank (BXPC3 cells; 120 hours (5 days)): 0.465
- MTT assay result, av (BXPC3 cells; 120 hours (5 days)): 0.520
- MTT assay result, run 1 (BXPC3 cells; 120 hours (5 days)): 0.485
- MTT assay result, run 2 (BXPC3 cells; 120 hours (5 days)): 0.49
- MTT assay result, run 3 (BXPC3 cells; 120 hours (5 days)): 0.522
- MTT assay result, run 4 (BXPC3 cells; 120 hours (5 days)): 0.539
- MTT assay result, run 5 (BXPC3 cells; 120 hours (5 days)): 0.551
- MTT assay result, run 6 (BXPC3 cells; 120 hours (5 days)): 0.523
- MTT assay result, run 7 (BXPC3 cells; 120 hours (5 days)): 0.527
- rel amt (relative value set to the control) (MiaPaCa-2 cells; 48 hours): 70
- MTT assay result, av-blank (MiaPaCa-2 cells; 48 hours): 0.217
- MTT assay result, av (MiaPaCa-2 cells; 48 hours): 0.263
- MTT assay result, run 1 (MiaPaCa-2 cells; 48 hours): 0.276
- MTT assay result, run 2 (MiaPaCa-2 cells; 48 hours): 0.284
- MTT assay result, run 3 (MiaPaCa-2 cells; 48 hours): 0.262
- MTT assay result, run 4 (MiaPaCa-2 cells; 48 hours): 0.239
- MTT assay result, run 5 (MiaPaCa-2 cells; 48 hours): 0.275
- MTT assay result, run 6 (MiaPaCa-2 cells; 48 hours): 0.239
- MTT assay result, run 7 (MiaPaCa-2 cells; 48 hours): 0.269
- rel amt (relative value set to the control) (MiaPaCa-2 cells; 120 hours (5 days)): 72
- MTT assay result, av-blank (MiaPaCa-2 cells; 120 hours (5 days)): 1.304
- MTT assay result, av (MiaPaCa-2 cells; 120 hours (5 days)): 1.356
- MTT assay result, run 1 (MiaPaCa-2 cells; 120 hours (5 days)): 1.344
- MTT assay result, run 2 (MiaPaCa-2 cells; 120 hours (5 days)): 1.314
- MTT assay result, run 3 (MiaPaCa-2 cells; 120 hours (5 days)): 1.27
- MTT assay result, run 4 (MiaPaCa-2 cells; 120 hours (5 days)): 1.337
- MTT assay result, run 5 (MiaPaCa-2 cells; 120 hours (5 days)): 1.579
- MTT assay result, run 6 (MiaPaCa-2 cells; 120 hours (5 days)): 1.308
- MTT assay result, run 7 (MiaPaCa-2 cells; 120 hours (5 days)): 1.341
